# Test results published in patent publication US6271342A, “Sugar-modified cytostatics” (Bayer Aktiengesellschaft, priority 1995, dated 2001).
# Assays:
# [1] = Acute toxicity, single administration; assay type: in vivo, nu/nu naked mice; conditions: single administration i.v., aqueous solution
# Description: Determination of the Acute Toxicity of Glycoconjugates of Batracyline (Single Administration)
# The acute toxicity of the batracyline derivatives was determined on nu/nu naked mice.
# The substances administered i.v., as aqueous solutions, and the substances administered i.p., as solutions in dimethyl sulphoxide, were injected once in concentrations of up to 400 mg of substance per kg of mouse.
# The individual dose tolerated was calculated from the decrease in the weight of the animals up to 21 days after administration and from the number of animals surviving.
# [2] = tested on: bone marrow parent cells of the mouse; test: CSF-induced proliferation of bone marrow parent cells, in vitro; assay type: cell-based; conditions: recombinant murine GM-CSF, 7 days
# Description: Bone marrow cells are flushed out of the femur of mice. 10^5 cells are incubated in McCoy SA medium (0.3% agar) together with recombinant murine GM-CSF (Genzyme; parent cell colony formation) and the substances (10^-4 to 100 μg/ml) at 37° C. and 7% CO2. 7 days later, the colonies ([…]) and clusters (17-50 cells) are counted.
# [3] = tested on: bone marrow parent cells; test: Bone marrow parent cell proliferation after in vivo treatment; design: species or system mouse
# Description: Mice are treated subcutaneously with 1, 3, 10 or 30 mg/kg of the compounds. At various times (3, 24, 48, 72 p. inj.) the femurs are removed and the bone marrow cells isolated. 2×10^5 cells are incubated with GM-CSF as described above and, after 7 days, the colonies and clusters are counted.
# [4] = tested on: CXF 280; test: Two-layer soft agar culture of human tumour xenografts; assay type: cell-based; conditions: T/C ≤30%
# Description: (§1) The in vitro activity of glycoconjugates of quinolone-a was determined on human tumour xenografts in a two-layer soft agar culture system according to Hamburger and Salmon (Science 197: 461-463).
# (§2) The solid tumours were initially grown in the athymic naked mouse (NMRI nu/nu), obtained by surgery and comminuted mechanically. Individual cells were then obtained by incubation in an enzyme mixture of collagenase 0.05%, DNAse 0.07% and hyaluronidase 0.1% in RPMI at 37° C. for 30 minutes. The cells were washed 2× and then passed through a sieve of 200 μm and 20 μm mesh width.
# (§3) The base layer comprises 0.2 ml of Iscoves's Modified Dulbeccos Medium with 20% foetal calf serum and 0.7% agar. 40,000 to 200,000 cells in 0.2 ml of the same medium and 0.4% agar were applied to this layer in 24 multiwell plates. The cytostatic substances were added in 0.2 ml of medium.
# (§4) The cultures were incubated at 37° C. in a 7% CO2 atmosphere for 6 to 15 days. The colonies which had grown were then counted under an inverting microscope, the living colonies being stained with a tetrazolium chloride dyestuff 24 hours before the evaluation.
# (§5) The effect of the active compound is expressed in per cent of surviving colonies compared with the colony count of untreated plates (T/C=colony count treated×100/control count untreated).
# (§6) A substance is active if the T/C value is ≤30%.
# (§7) This value is shown as the IC70 value in μg/ml in Table 8.
# [5] = tested on: HT 29; test: as above; assay type: cell-based; conditions: T/C ≤30%
# Description: as §1, §2, §3, §4, §5, §6, §7
# [6] = tested on: LXFL 529; test: as above; assay type: cell-based; conditions: T/C ≤30%
# Description: as §1, §2, §3, §4, §5, §6, §7
# [7] = tested on: LXFS 538; test: as above; assay type: cell-based; conditions: T/C ≤30%
# Description: as §1, §2, §3, §4, §5, §6, §7
# [8] = tested on: MEXF 989; test: as above; assay type: cell-based; conditions: T/C ≤30%
# Description: as §1, §2, §3, §4, §5, §6, §7
# [9] = tested on: OVXF 1023; test: as above; assay type: cell-based; conditions: T/C ≤30%
# Description: as §1, §2, §3, §4, §5, §6, §7
# [10] = tested on: OVXF 899; test: as above; assay type: cell-based; conditions: T/C ≤30%
# Description: as §1, §2, §3, §4, §5, §6, §7
# [11] = tested on: SW 480; test: as above; assay type: cell-based; conditions: T/C ≤30%
# Description: as §1, §2, §3, §4, §5, §6, §7
# [12] = tested on: B16F10 tumour; test: In vivo test, survival of mice with transplanted B16F10 tumour; design: species or system mouse; conditions: 0.1 mg/kg, treated daily
# Description: Mice are inoculated with 5×10^6 B16F10 tumour cells on day 0. The animals in which tumour cells are transplanted develop solid peritoneal tumours and are then treated daily with test substances or with the vehicle control. In the control group, 50% of the animals usually die between day 14 and 20. The test substances are administered in buffer or an organic solvent system comprising 20% methanol and 20% dimethyl sulphoxide in 0.7% sodium chloride solution.
# The therapeutic result arises from the prolonging of the survival time of the treated animals. […] A therapeutic index can be estimated from the tolerance and prolonging of the survival time.
# [13] = tested on: SW 480; test: Growth inhibition test (MTT) for cytotoxic properties; assay type: cell-based, human
# Method in brief: (§8)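 IC50 values come from an MTT read at 540 nm (5 h at 37 °C, 5 mg/ml MTT stock), taken on day 3 and day 6. Cells (HT 29, SW 480; 50,000 cells/ml in RPMI/10% FCS) were pre-cultured 1 day, then compound in DMSO was added.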
# [14] = tested on: B 16 F 10; test: as above; assay type: cell-based, mouse; conditions: Table 1b
# Method in brief: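 Cells in RPMI 1640 with 10% FCS pre-cultured 1 day at 37° C, then exposed to test substances in DMSO; growth checked after day 3 and day 6. Read-out by MTT, 5 h incubation, isopropanol solubilization, extinction at 540 nm.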
# [15] = Cleavage kinetics with human blood (HPLC); assay type: in vitro ADME; conditions: Table 2b; 37° C.
# Source text: In Vitro Investigation of the Cleavability of the Glycoconjugates
# Cleavage Kinetics With Human Blood
# [16] = tested on: SW-480; test: Cleavage kinetics with cells (HPLC); conditions: Table 2b; 37° C.
# Description: Cleavage Kinetics With Cells
# (§9) 2.25 ml of PBS are incubated together with 225 μl of a cell suspension (30 mg/ml) and 25 μl of substrate stock solution (1 mg/ml in 3% dimethyl sulphoxide in PBS) at 37° C. After 1 hour and 24 hours, samples of in each case 1 ml are taken, mixed with 1 ml of ethanol and left to stand at 4° C. for 20 minutes. After centrifugation (5 minutes at 3500 rpm), 100 μl of supernatant are taken for the HPLC analysis.
# [17] = tested on: hepatoma; test: Cleavage kinetics with cells (HPLC); conditions: Table 2b; 37° C.
# Description: Cleavage Kinetics With Cells
# as §9
# [18] = tested on: HT 29; test: Growth inhibition test (MTT) for cytotoxic properties; assay type: cell-based, human; conditions: Table 1a, glycoconjugates of batracyline
# Method in brief: as §8
# [19] = Investigation of organ distribution in naked mice carrying SW 480 tumours; assay type: in vivo, Athymic naked mice (strain NMRI nu/nu)
# Source text: Athymic naked mice (strain NMRI nu/nu) bred in "Drug Development Laboratory, Oncotest GmbH", Prof. H. H. Fiebig, Freiburg, were used for all the experiments. The animals were kept in Macrolon cages under laminar flow conditions. Tissue of the cell line SW 480 which had been grown beforehand in several passages in the naked mice, was used as the tumour material.
# Two tumours per animal were implanted subcutaneously in the two flanks of the naked mice 6 to 8 weeks old. The animals were kept for 26 to 27 days until the time of randomization. The average tumour size was then 500 mg, corresponding to a tumour diameter of about 10 mm.
# The pharmacokinetics themselves proceeded as follows: the substance to be investigated was injected into the naked mice and the mice were then put back in the cages until samples were taken after 1/2 hour and after 4 hours. The taking of samples itself began with sampling of blood. For this, the mouse was anaesthetized by means of anaesthetic ether (duration 1/2 to one minute). 0.5 hour and 4 hours after injection of the substance, the abdominal cavity was opened and the mouse was exsanguinated under anaesthesia via the Vena cava caudalis in the course of 1 to 2 minutes and then sacrificed by breaking its neck. As a result, central circulatory arrest occurred and organ perfusion was suppressed. The individual organs were then exposed and removed, an operation which took about 5 minutes. Immediately thereafter, the organ samples and then the remainder of the body were weighed and frozen in liquid nitrogen.
# The substance "conjugate 1" is administered i.p. in an amount of 300 mg/kg of body weight and the substance "conjugate 2" is administered i.v. into the tail vein in an amount of 100 mg/kg. 5 animals are used per substance and time.
# 5, 10, 50, 100 and 200 μg of substance, dissolved in ethanol/water (1:1, v/v) were added to 1 g of bovine liver. The samples were then ground in a mortar with 1 g of sea sand and 2.5 ml of cooled ethanol/water (1:1, v/v) and centrifuged at 3500 rpm for 2 minutes. After removal of the supernatant, the residue was again mixed with 2.5 ml of ethanol/water and centrifuged and the supernatants were combined. In each case 100 μl were taken and analyzed by HPLC.
# The organs were worked up analogously to A, the entire organs being broken down with 2.5 ml of ethanol/water and extracted.
# The amount of blood taken was mixed with 2 ml of ethanol/water (1:1, v/v) and centrifuged for 2 minutes at 3500 rpm, and the supernatant was decanted. 2 ml of ethanol/water (1:1, v/v) were again added to the residue, the mixture was centrifuged and the supernatants were combined. In each case 100 μl of the combined supernatants were analyzed by HPLC. The HPLC conditions used under A were used. [drawing 14]
# [20] = as above; assay type: in vivo, Athymic naked mice (strain NMRI nu/nu); conditions: after conjugate 1 i.p. 300 mg/kg
# [21] = Kidney, after conjugate 2 i.v. 100 mg/kg
# [22] = Tumour, after conjugate 2 i.v. 100 mg/kg
molecule,measurement,setting,value
"N[C@@H]1C=CC[C@@H]2CN(c3c(F)cc4c(=O)c(C(=O)O)cn(C5CC5)c4c3Cl)C[C@@H]21 (racemic) [Quinolone-a, 7-[(3aRS,4RS,7aSR)-4-amino-1,3,3a,4,7,7a-hexahydro-isoindol-2-yl]-8-chloro 1-cyclopropyl-6-fluoro-1,4-dihydro4-oxo-3-quinolinecarboxylic acid, reference compound]","Individual dose tolerated in mg/kg of mouse, i.v.",[1],< 25 mg/kg of mouse
same,IC50,"[2]; Mus musculus, 168 h, read-out: IC50 [μg/ml] CSF-induced proliferation of bone marrow parent cells of the mouse",0.0002 µg/mL
same,suppression of parent cell proliferation in vivo,"[3]; 3 mg/kg, subcutaneously (FIG. 1)",massive suppression
same,IC70 /μg/ml,[4],6 µg/mL
same,IC70 /μg/ml,[5],20 µg/mL
same,IC70 /μg/ml,[6],3 µg/mL
same,IC70 /μg/ml,[7],< 0.3 µg/mL
same,IC70 /μg/ml,[8],< 0.3 µg/mL
same,IC70 /μg/ml,[9],0.5 µg/mL
same,IC70 /μg/ml,[10],2 µg/mL
same,IC70 /μg/ml,[11],3 µg/mL
same,% survivors Day 0,[12],100%
same,% survivors Day 20,[12],100%
same,% survivors Day 25,[12],100%
same,% survivors Day 30,[12],60%
same,% survivors Day 35,[12],40%
"C[C@@H]1O[C@H](Oc2ccc(NC(=S)N[C@H](C)C(=O)NC3C=CCC4CN(c5c(F)cc6c(=O)c(C(=O)O)cn(C7CC7)c6c5Cl)CC43)cc2)[C@@H](O)[C@H](OCC(=O)[O-])[C@@H]1O.[Na+] (stereo partly drawn) [Example 12.3, N-{N'-[O-(3-O-Carboxymethyl-β-L-fucosyl)-4-hydroxy-phenylamino-thiocarbonyl]-D-alanyl}-quinolone-a, mono-sodium salt]",IC50,[13]; Table 1b,2 µM
same,IC50,[14],0.3 µM
same,% cleavage in human blood 1 hour,[15],0%
same,% cleavage in human blood 24 hours,[15],0%
same,"Individual dose tolerated in mg/kg of mouse, i.v.",[1],> 200 mg/kg of mouse
same,IC50 [μg/ml] CSF-induced proliferation of bone marrow parent cells of the mouse,[2],0.27 µg/mL
same,inhibition in parent cell proliferation in vivo,"[3]; up to 30 mg/kg, subcutaneously",no inhibition
same,IC70 /μg/ml,[4],5 µg/mL
same,IC70 /μg/ml,[5],5 µg/mL
same,IC70 /μg/ml,[6],2 µg/mL
same,IC70 /μg/ml,[7],0.5 µg/mL
same,IC70 /μg/ml,[8],< 0.3 µg/mL
same,IC70 /μg/ml,[9],10 µg/mL
same,IC70 /μg/ml,[10],162 µg/mL
same,IC70 /μg/ml,[11],11 µg/mL
same,% cleavage in SW-480 1 hour,[16],0%
same,% cleavage in SW-480 24 hours,[16],0%
same,% cleavage in hepatoma 1 hour,[17],0%
same,% cleavage in hepatoma 24 hours,[17],0%
batracyline,IC50,[18],20 µM
same,IC50,"[13]; Table 1a, glycoconjugates of batracyline",25 µM
same,Mean 4 hours (μg/g of organ),"[19]; Kidney, after conjugate 1 i.p. 300 mg/kg",27.5 μg/g of organ
same,Mean 0.5 hour (μg/g of organ),[19]; [21],10.7 μg/g of organ
same,Mean 4 hours (μg/g of organ),[19]; [21],0.8 μg/g of organ
same,Mean 4 hours (μg/g of organ),"[19]; Liver, after conjugate 1 i.p. 300 mg/kg",22.4 μg/g of organ
same,Mean 0.5 hour (μg/g of organ),[19]; [22],2.5 μg/g of organ
same,Mean 4 hours (μg/g of organ),[19]; [22],3.12 μg/g of organ
same,Mean 1 hour (μg/g of organ),[20]; Kidney,26.1 μg/g of organ
same,Mean 1 hour (μg/g of organ),[20]; Liver,34.1 μg/g of organ
